We go through nine molecules from US20250066388A1, “1,3,4,7-TETRAHYDRO-2H-PYRROLO[3',2':5,6]PYRIDO[2,3-B][1,4]OXAZEPINE BCL-2 INHIBITORS” (AbbVie Inc., priority 2022, published 2025).

For one assay, the system named is RS4;11 cells. Briefly: Cell viability assay (CellTiter-Glo) in RS4;11 cells. Type of assay: cell-based. Particulars: 24 hours, 10% Human Serum. Here is the method:
(§1) The acute lymphoblastic leukemia (ALL) human cell line RS4;11 (ATCC, Manassas VA) was used as the primary human cell line to assess the cellular activity of compound of the present Examples in vitro and their efficacy in vivo. […] The acute lymphoblastic leukemia cell line Molt-4, which is derived from immature T-lymphoid cells (T-ALL), was used as a counter screen assay.
(§2) 3000 Cells (0.1×10^6/mL) were seeded in each well of 384-well plate and were treated for 24 hours in a humidified chamber with 5% CO2. Cell viability was determined by CellTiter-Glo as described by the manufacturer's instructions (Promega Corporation, Madison, WI, USA).

The next assay has as its system Molt-4 cells. Briefly: Cell viability counter screen (CellTiter-Glo) in Molt-4 cells. It counts as cell-based. Particulars: 24 hours, 10% Human Serum. As for the experimental part: as §1, §2
In a further assay the target is Bcl-2 protein (Homo sapiens (Human), UniProt P10415). The assay is described as follows: TR-FRET binding assay, Bcl-2. Particulars: F-Bak peptide probe, GST-Bcl-2. Here is the method:
(§3) Determination of the utility of compounds having Formula (I) or Formula (II) as binders to and inhibitors of anti-apoptotic Bcl-2 proteins was performed using the Time Resolved-Fluorescence Resonance Energy Transfer (TR-FRET) Assay. Tb-anti-GST antibody was purchased from Invitrogen (Catalog No. PV4216).
A Bcl-2 human encoding sequence was cloned into a pET41A vector (Novagen). The protein was expressed with E. coli. BL21(DE3)-T1R strain in OETB autoinduction medium at 30° C. for 25 hours. The cell pellets were resuspended in lysis buffer (50 mM Tris, 140 mM NaCl, 1 mM DTT, 10% Glycerol, 2 mM MgCl2, pH 7.3) and lysed with Microfluidizer. The Bcl-2 protein in clarified cell-lysate was purified with affinity chromatography (GST and Ni-NTA). The eluate was loaded onto a Superdex 75 column and further purified with a Q Sepharose column. The protein was purified on a phenyl hydrophobic interaction column and dialyzed in the storage buffer (50 mM Tris, 50 mM NaCl, 2 mM DTT, pH 7.5) and stored at −80° C.
(§4) […] of a protein (Bcl-2 or Bcl-xL)/probe/antibody mixture pre-equilibrated for one hour in assay buffer was added to each well at final concentrations listed in Table 6 below.
(§5) The samples were then mixed on a shaker for 1 minute and equilibrated for an additional 3 hours at room temperature. For each assay plate, a probe/antibody and protein/antibody/probe mixture were included as a negative and a positive control, respectively. Fluorescence was measured on the Envision (Perkin Elmer) using a 340/35 nm excitation filter and 520/525 (F-Bak) and 495/510 nm (Tb-labeled anti-GST antibody) emission filters. Inhibition constants (Ki) were determined using Wang's equation (Wang FEBS Lett. 1995, 360, 111-114). The TR-FRET assay can be performed in the presence of varying concentrations of human serum (HS) to determine apparent half maximal inhibitory concentration (IC50) after HS protein binding.
(§6) Inhibition constants were determined using Wang's equation (Wang FEBS Lett. 1995, 360:111-4).

In another assay the target is Bcl-xL protein (Homo sapiens (Human), UniProt Q07817). Briefly: TR-FRET binding assay, Bcl-xL. Particulars: F-Bak peptide probe. As for the experimental part:
as §3
A human Bcl-xL encoding sequence was cloned into a pET41A vector. The protein was expressed with E. coli. BL21(DE3)-T1R strain in OETB autoinduction medium at 30° C. for 25 hours. The cell pellets were resuspended in lysis buffer (50 mM Tris, 140 mM NaCl, 1 mM DTT, 10% Glycerol, 0.1% Triton X-100, pH 7.5) and lysed with Microfluidizer. The Bcl-xL protein in clarified cell-lysate was purified with GST affinity chromatography. The eluate was dialyzed in the storage buffer (1×PBS, 10% Glycerol, 2 mM DTT, 1 mM Sodium Azide, pH 7.4) and stored at −80° C.
as §4, §5, §6
For orientation: Time-resolved FRET reads energy transfer from a long-lived donor to a nearby acceptor.

One may read the EC50 as the concentration needed to bring the measured effect to its halfway point. The Ki is a dissociation constant, usually derived from enzyme kinetics or from competition with a known ligand. Low values mean higher affinity, high ones lower affinity.

Sequence of Bcl-2 protein (P10415 other isoform, or with tags, fused parts or gaps): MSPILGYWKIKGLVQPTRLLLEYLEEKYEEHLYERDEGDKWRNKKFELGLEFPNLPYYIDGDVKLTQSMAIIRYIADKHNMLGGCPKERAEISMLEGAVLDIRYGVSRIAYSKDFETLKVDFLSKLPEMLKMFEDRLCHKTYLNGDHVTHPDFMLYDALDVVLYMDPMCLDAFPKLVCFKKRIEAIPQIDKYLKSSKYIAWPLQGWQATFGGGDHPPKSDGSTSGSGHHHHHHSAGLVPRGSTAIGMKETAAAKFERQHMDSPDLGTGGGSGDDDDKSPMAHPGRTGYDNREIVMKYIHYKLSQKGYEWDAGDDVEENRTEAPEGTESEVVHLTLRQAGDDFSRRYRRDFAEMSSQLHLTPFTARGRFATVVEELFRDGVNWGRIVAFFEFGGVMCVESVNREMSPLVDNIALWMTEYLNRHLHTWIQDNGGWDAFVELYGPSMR
Sequence of Bcl-xL protein (Q07817 other isoform, or with tags, fused parts or gaps): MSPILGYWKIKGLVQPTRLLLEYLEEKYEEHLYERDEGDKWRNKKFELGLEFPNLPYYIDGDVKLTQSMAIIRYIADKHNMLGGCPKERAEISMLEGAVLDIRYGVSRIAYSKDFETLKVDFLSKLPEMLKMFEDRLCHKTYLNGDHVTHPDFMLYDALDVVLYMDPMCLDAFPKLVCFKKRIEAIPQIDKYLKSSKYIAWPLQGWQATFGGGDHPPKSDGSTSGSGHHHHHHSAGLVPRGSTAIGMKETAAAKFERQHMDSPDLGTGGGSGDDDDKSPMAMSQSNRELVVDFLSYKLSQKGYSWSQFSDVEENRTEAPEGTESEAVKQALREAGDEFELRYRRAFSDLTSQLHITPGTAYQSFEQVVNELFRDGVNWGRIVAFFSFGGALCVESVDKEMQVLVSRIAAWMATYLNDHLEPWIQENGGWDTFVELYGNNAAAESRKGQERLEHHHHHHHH

Regarding `CC1(C)CC(c2ccc(Cl)cc2)=C2CN3CCN(c4ccc(C(=O)NS(=O)(=O)c5ccc(NCC6CCCCO6)c([N+](=O)[O-])c5)c(N5CCCOc6nc7[nH]ccc7cc65)c4)C[C@H]3COCCCO[C@@H]2C1` (stereo partly drawn) [Example 45, 4-((4aS,10aR)-14-(4-chlorophenyl)-12,12-dimethyl-1,2,4a,5,8,9,10a,11,13,15-decahydro-7H,12H-benzo[f]pyrazino[2,1-c][1,8]dioxa[4]azacycloundecin-3(4H)-yl)-2-(3,4-dihydro-2H-pyrrolo[3′,2′:5,6]pyrido[2,3-b][1,4]oxazepin-1(7H)-yl)-N-((3-nitro-4-(((tetrahydro-2H-pyran-2-yl)methyl)amino)phenyl)sulfonyl)benzamide], the EC50 with RS4;11 cells was 10.7 nM; with Molt-4 cells, more than 10000 nM.
Take `CO[C@@H]1CC[C@@H](COc2ccc(S(=O)(=O)NC(=O)c3ccc(N4CCN5CC6=C(c7ccc(Cl)cc7)CC(C)(C)C[C@H]6OCCCOC[C@@H]5C4)cc3N3CCCOc4nc5[nH]ccc5cc43)cc2[N+](=O)[O-])OC1` [Example 51, 4-((4aS,10aR)-14-(4-chlorophenyl)-12,12-dimethyl-1,2,4a,5,8,9,10a,11,13,15-decahydro-7H,12H-benzo[f]pyrazino[2,1-c][1,8]dioxa[4]azacycloundecin-3(4H)-yl)-2-(3,4-dihydro-2H-pyrrolo[3′,2′:5,6]pyrido[2,3-b][1,4]oxazepin-1(7H)-yl)-N-((4-(((2S,5R)-5-methoxytetrahydro-2H-pyran-2-yl)methoxy)-3-nitrophenyl)sulfonyl)benzamide]: the EC50 with RS4;11 cells was 9.6 nM; with Molt-4 cells, more than 10000 nM.
Turning to `CC1(C)CC(c2ccc(Cl)cc2)=C2CN3CCN(c4ccc(C(=O)NS(=O)(=O)c5ccc(OC[C@H]6CC[C@](C)(O)CC6)c([N+](=O)[O-])c5)c(N5CCCOc6nc7[nH]ccc7cc65)c4)C[C@H]3COCCCO[C@@H]2C1` [Example 44, 4-((4aS,10aR)-14-(4-chlorophenyl)-12,12-dimethyl-1,2,4a,5,8,9,10a,11,13,15-decahydro-7H,12H-benzo[f]pyrazino[2,1-c][1,8]dioxa[4]azacycloundecin-3(4H)-yl)-2-(3,4-dihydro-2H-pyrrolo[3′,2′:5,6]pyrido[2,3-b][1,4]oxazepin-1(7H)-yl)-N-((4-(((1r,4r)-4-hydroxy-4-methylcyclohexyl)methoxy)-3-nitrophenyl)sulfonyl)benzamide], the EC50 is 4.39 nM in the assay on RS4;11 cells and 2270 nM in the assay with Molt-4 cells.
As for `CC1(C)CC(c2ccc(Cl)cc2)=C2CN3CCN(c4ccc(C(=O)NS(=O)(=O)c5ccc(OC[C@H]6CC[C@@](C)(O)CC6)c([N+](=O)[O-])c5)c(N5CCCOc6nc7[nH]ccc7cc65)c4)C[C@H]3COCCCO[C@@H]2C1` [Example 49, 4-((4aS,10aR)-14-(4-chlorophenyl)-12,12-dimethyl-1,2,4a,5,8,9,10a,11,13,15-decahydro-7H,12H-benzo[f]pyrazino[2,1-c][1,8]dioxa[4]azacycloundecin-3(4H)-yl)-2-(3,4-dihydro-2H-pyrrolo[3′,2′:5,6]pyrido[2,3-b][1,4]oxazepin-1(7H)-yl)-N-((4-(((1s,4s)-4-hydroxy-4-methylcyclohexyl)methoxy)-3-nitrophenyl)sulfonyl)benzamide], the EC50 turned out to be 25 nM with RS4;11 cells and 36 nM in the assay on Molt-4 cells.
For the molecule `COC[C@]1(F)C[C@H](CNc2ccc(S(=O)(=O)NC(=O)c3ccc(N4CCN5CC6=C(c7ccc(Cl)cc7)CC(C)(C)C[C@H]6OCCCOC[C@@H]5C4)cc3N3CCCOc4nc5[nH]ccc5cc43)cc2[N+](=O)[O-])C1` [Example 47, 4-((4aS,10aR)-14-(4-chlorophenyl)-12,12-dimethyl-1,2,4a,5,8,9,10a,11,13,15-decahydro-7H,12H-benzo[f]pyrazino[2,1-c][1,8]dioxa[4]azacycloundecin-3(4H)-yl)-2-(3,4-dihydro-2H-pyrrolo[3′,2′:5,6]pyrido[2,3-b][1,4]oxazepin-1(7H)-yl)-N-((4-((((1r,3r)-3-fluoro-3-(methoxymethyl)cyclobutyl)methyl)amino)-3-nitrophenyl)sulfonyl)benzamide], the EC50 with RS4;11 cells was 10.9 nM; in the assay on Molt-4 cells it was more than 10000 nM.
In the same order, the values of `CO[C@]1(CF)C[C@@H](CNc2ccc(S(=O)(=O)NC(=O)c3ccc(N4CCN5CC6=C(c7ccc(Cl)cc7)CC(C)(C)C[C@H]6OCCCOC[C@@H]5C4)cc3N3CCCOc4nc5[nH]ccc5cc43)cc2[N+](=O)[O-])C1` [Example 48, 4-((4aS,10aR)-14-(4-chlorophenyl)-12,12-dimethyl-1,2,4a,5,8,9,10a,11,13,15-decahydro-7H,12H-benzo[f]pyrazino[2,1-c][1,8]dioxa[4]azacycloundecin-3(4H)-yl)-2-(3,4-dihydro-2H-pyrrolo[3′,2′:5,6]pyrido[2,3-b][1,4]oxazepin-1(7H)-yl)-N-((4-((((1r,3r)-3-(fluoromethyl)-3-methoxycyclobutyl)methyl)amino)-3-nitrophenyl)sulfonyl)benzamide] are 18.1 nM and 5840 nM.
Regarding `CC1(C)CC(c2ccc(Cl)cc2)=C2CN3CCN(c4ccc(C(=O)NS(=O)(=O)c5ccc(NC[C@H]6COCCO6)c([N+](=O)[O-])c5)c(N5CCCOc6nc7[nH]ccc7cc65)c4)C[C@H]3COCCCO[C@@H]2C1` [Example 3, N-((4-((((S)-1,4-dioxan-2-yl)methyl)amino)-3-nitrophenyl)sulfonyl)-4-((4aS,10aR)-14-(4-chlorophenyl)-12,12-dimethyl-1,2,4a,5,8,9,10a,11,13,15-decahydro-7H,12H-benzo[f]pyrazino[2,1-c][1,8]dioxa[4]azacycloundecin-3(4H)-yl)-2-(3,4-dihydro-2H-pyrrolo[3′,2′:5,6]pyrido[2,3-b][1,4]oxazepin-1(7H)-yl)benzamide], the EC50 in the assay with RS4;11 cells came out at 1.36 nM; in the assay with Molt-4 cells, 1410 nM.
`C[C@H]1CCC(CNc2ccc(S(=O)(=O)NC(=O)c3ccc(N4CCN5CC6=C(c7ccc(Cl)cc7)CC(C)(C)C[C@H]6OCCCOCC5C4)cc3N3CCCOc4nc5[nH]ccc5cc43)cc2[N+](=O)[O-])OC1` (stereo partly drawn) [Example 23, 4-((4aS,10aR)-14-(4-chlorophenyl)-12,12-dimethyl-1,2,4a,5,8,9,10a,11,13,15-decahydro-7H,12H-benzo[f]pyrazino[2,1-c][1,8]dioxa[4]azacycloundecin-3(4H)-yl)-2-(3,4-dihydro-2H-pyrrolo[3′,2′:5,6]pyrido[2,3-b][1,4]oxazepin-1(7H)-yl)-N-((4-((((2R,5S)-5-methyltetrahydro-2H-pyran-2-yl)methyl)amino)-3-nitrophenyl)sulfonyl)benzamide] displayed an EC50 in the assay on Molt-4 cells of more than 10000 nM. For the same molecule, the values for the Ki at Bcl-2 protein and on Bcl-xL protein were 0.634 nM and 29.7 nM, respectively.
The molecule `CO[C@H]1CC[C@H](COc2ccc(S(=O)(=O)NC(=O)c3ccc(N4CCN5CC6=C(c7ccc(Cl)cc7)CC(C)(C)C[C@H]6OCCCOC[C@@H]5C4)cc3N3CCCOc4nc5[nH]ccc5cc43)cc2Cl)OC1` [Example 40, N-((3-chloro-4-(((2R,5S)-5-methoxytetrahydro-2H-pyran-2-yl)methoxy)phenyl)sulfonyl)-4-((4aS,10aR)-14-(4-chlorophenyl)-12,12-dimethyl-1,2,4a,5,8,9,10a,11,13,15-decahydro-7H,12H-benzo[f]pyrazino[2,1-c][1,8]dioxa[4]azacycloundecin-3(4H)-yl)-2-(3,4-dihydro-2H-pyrrolo[3′,2′:5,6]pyrido[2,3-b][1,4]oxazepin-1(7H)-yl)benzamide] displayed an EC50 in the assay with Molt-4 cells of more than 10000 nM. The inhibition constant (Ki) on Bcl-2 protein worked out at 0.349 nM; at Bcl-xL protein, 199 nM.
